Laboratory results as given in patent publication US20150111934A1, “CRYSTALLINE FORMS OF AN ADRENERGIC AGONIST” (DIPHARMA FRANCIS S.R.L., priority 2013, published 2015).

What was measured:
physchem = details: 25 °C, water
[1] = cited from earlier work; for physical stability of the crystalline form: prior art forms of U.S. Pat. No. 7,342,117

| solubility in water (in words) (solubility in water) | SMILES | physical stability of the crystalline form [1] | further results |
| --- | --- | --- | --- |
| – | CC(=O)O.Nc1nc(CC(=O)Nc2ccc(CCNC[C@H](O)c3ccccc3)cc2)cs1 [Mirabegron acetate salt, 2-(2-amino-1,3-thiazol-4-yl)-N-[4-(2-{[(2R)-2-hydroxy-2-phenylethyl]amino}ethyl)phenyl]acetamide acetate salt] | – | solubility (physchem): ~100 mg/mL |
| – | Cl.Cl.Nc1nc(CC(=O)Nc2ccc(CCNCC(O)c3ccccc3)cc2)cs1 (stereo not drawn) | – | hygroscopicity and stability of the crystalline salt ([1]; as demonstrated in U.S. Pat. No. 7,342,117): highly hygroscopic and unstable |
| – | Nc1nc(CC(=O)Nc2ccc(CCNC[C@H](O)c3ccccc3)cc2)cs1 [form β, (R)-2-(2-Aminothiazol-4-yl)-4′-[2-[(2-hydroxy-2-phenylethyl)amino]ethyl]acetanilide] | metastable polymorph | – |
| almost wholly insoluble in water | Nc1nc(CC(=O)Nc2ccc(CCNC[C@H](O)c3ccccc3)cc2)cs1 [Mirabegron base, (R)-2-(2-Aminothiazol-4-yl)-4′-[2-[(2-hydroxy-2-phenylethyl)amino]ethyl]acetanilide] | – | – |
| practically insoluble in water | Nc1nc(CC(=O)Nc2ccc(CCNC[C@H](O)c3ccccc3)cc2)cs1 [Crystalline form α of Mirabegron, (R)-2-(2-Aminothiazol-4-yl)-4′-[2-[(2-hydroxy-2-phenylethyl)amino]ethyl]acetanilide] | stable solid form | – |
